# Measured values taken from PMC12209991 (Clinical Pharmacology in Drug Development, 2025).
# Read-outs that look alike come from different tables or passages of the source.
# Legend:
# [1] = Single ascending dose (SAD) pharmacokinetics in healthy volunteers; type: in vivo, human; conditions: for AUC(0-inf) / Cmax / Tmax: human, plasma, po
# Protocol: (§1) Analytes were separated by HPLC on a Waters Atlantis T3 analytical column using a gradient mobile phase (mobile phase A: 10% acetonitrile, 90% water, 10 mM ammonium acetate, 0.3% formic acid; mobile phase B: 90% acetonitrile, 10% water, 10 mM ammonium acetate, 0.3% formic acid) run at 0.4 mL/min with initial mobile phase B concentration of 30%.
# [2] = Multiple ascending dose (MAD) pharmacokinetics in healthy volunteers, BID for 14 days; type: in vivo, human; conditions: for AUC / Cmax / Tmax / half-life: human, plasma, oral; for Tmax: read-out: Tmax, median [min-max]
# Protocol: as §1
smiles,measurement,setting,value
CC(=O)N1CCC(COc2cc(F)c3c(=O)[nH]c(CSC4CCOCC4)nc3c2)CC1 [RBN‐3143],RBN-3143 dose excreted in urine unchanged,"[1]; SAD and MAD cohorts, pooled urine",Approximately 16%
same,AUC(0-inf),"[1]; 25 mg, single oral dose 25 mg, read-out: AUCinf, geometric mean (Geo CV%)",734 ng·h/mL
same,AUC(0-inf),"[1]; 25 mg, single oral dose 25 mg, read-out: AUCinf, mean (SD)",752 ng·h/mL
same,Cmax,"[1]; 25 mg, single oral dose 25 mg, read-out: Cmax, geometric mean (Geo CV%)",134 ng/mL
same,Cmax,"[1]; 25 mg, single oral dose 25 mg, read-out: Cmax, mean (SD)",138 ng/mL
same,Tmax,"[1]; 25 mg, single oral dose 25 mg, read-out: Tmax, median [min-max]",2 h
same,AUC(0-inf),"[1]; 50 mg, single oral dose 50 mg, read-out: AUCinf, geometric mean (Geo CV%)",1540 ng·h/mL
same,AUC(0-inf),"[1]; 50 mg, single oral dose 50 mg, read-out: AUCinf, mean (SD)",1560 ng·h/mL
same,Cmax,"[1]; 50 mg, single oral dose 50 mg, read-out: Cmax, geometric mean (Geo CV%)",259 ng/mL
same,Cmax,"[1]; 50 mg, single oral dose 50 mg, read-out: Cmax, mean (SD)",269 ng/mL
same,Tmax,"[1]; 50 mg, single oral dose 50 mg, read-out: Tmax, median [min-max]",2 h
same,AUC(0-inf),"[1]; 100 mg, single oral dose 100 mg, read-out: AUCinf, geometric mean (Geo CV%)",3540 ng·h/mL
same,AUC(0-inf),"[1]; 100 mg, single oral dose 100 mg, read-out: AUCinf, mean (SD)",3610 ng·h/mL
same,Cmax,"[1]; 100 mg, single oral dose 100 mg, read-out: Cmax, geometric mean (Geo CV%)",544 ng/mL
same,Cmax,"[1]; 100 mg, single oral dose 100 mg, read-out: Cmax, mean (SD)",556 ng/mL
same,Tmax,"[1]; 100 mg, single oral dose 100 mg, read-out: Tmax, median [min-max]",1.75 h
same,AUC(0-inf),"[1]; 150 mg, single oral dose 150 mg, read-out: AUCinf, geometric mean (Geo CV%)",5000 ng·h/mL
same,AUC(0-inf),"[1]; 150 mg, single oral dose 150 mg, read-out: AUCinf, mean (SD)",5050 ng·h/mL
same,Cmax,"[1]; 150 mg, single oral dose 150 mg, read-out: Cmax, geometric mean (Geo CV%)",653 ng/mL
same,Cmax,"[1]; 150 mg, single oral dose 150 mg, read-out: Cmax, mean (SD)",668 ng/mL
same,Tmax,"[1]; 150 mg, single oral dose 150 mg, read-out: Tmax, median [min-max]",2 h
same,AUC(0-inf),"[1]; 300 mg, single oral dose 300 mg, read-out: AUCinf, geometric mean (Geo CV%)",6230 ng·h/mL
same,AUC(0-inf),"[1]; 300 mg, single oral dose 300 mg, read-out: AUCinf, mean (SD)",6440 ng·h/mL
same,Cmax,"[1]; 300 mg, single oral dose 300 mg, read-out: Cmax, geometric mean (Geo CV%)",747 ng/mL
same,Cmax,"[1]; 300 mg, single oral dose 300 mg, read-out: Cmax, mean (SD)",771 ng/mL
same,Tmax,"[1]; 300 mg, single oral dose 300 mg, read-out: Tmax, median [min-max]",2 h
same,AUC(0-inf),"[1]; 600 mg, single oral dose 600 mg, read-out: AUCinf, geometric mean (Geo CV%)",11700 ng·h/mL
same,AUC(0-inf),"[1]; 600 mg, single oral dose 600 mg, read-out: AUCinf, mean (SD)",11900 ng·h/mL
same,Cmax,"[1]; 600 mg, single oral dose 600 mg, read-out: Cmax, geometric mean (Geo CV%)",1200 ng/mL
same,Cmax,"[1]; 600 mg, single oral dose 600 mg, read-out: Cmax, mean (SD)",1240 ng/mL
same,Tmax,"[1]; 600 mg, single oral dose 600 mg, read-out: Tmax, median [min-max]",1.75 h
same,AUC(0-inf),"[1]; 1000 mg, single oral dose 1000 mg, read-out: AUCinf, geometric mean (Geo CV%)",16500 ng·h/mL
same,AUC(0-inf),"[1]; 1000 mg, single oral dose 1000 mg, read-out: AUCinf, mean (SD)",17700 ng·h/mL
same,Cmax,"[1]; 1000 mg, single oral dose 1000 mg, read-out: Cmax, geometric mean (Geo CV%)",1460 ng/mL
same,Cmax,"[1]; 1000 mg, single oral dose 1000 mg, read-out: Cmax, mean (SD)",1500 ng/mL
same,Tmax,"[1]; 1000 mg, single oral dose 1000 mg, read-out: Tmax, median [min-max]",2.02 h
same,Tmax,"[1]; SAD, oral, across doses 25-1000 mg, read-out: Tmax (time of peak concentrations)",2 h
same,time to steady-state,[2]; BID dosing,≤ 3 days
same,AUC,"[2]; 150 mg, 150 mg BID, Day 1, plasma, read-out: AUC12, geometric mean (Geo CV%)",3470 ng·h/mL
same,AUC,"[2]; 150 mg, 150 mg BID, Day 1, plasma, read-out: AUC12, mean (SD)",3610 ng·h/mL
same,Cmax,"[2]; 150 mg, 150 mg BID, Day 1, plasma, read-out: Cmax, geometric mean (Geo CV%)",597 ng/mL
same,Cmax,"[2]; 150 mg, 150 mg BID, Day 1, plasma, read-out: Cmax, mean (SD)",623 ng/mL
same,Tmax,"[2]; 150 mg, 150 mg BID, Day 1, plasma",2.5 h
same,half-life,"[2]; 150 mg, 150 mg BID, Day 1, plasma, read-out: t1/2, geometric mean (Geo CV%) (converted)",4.13 h
same,half-life,"[2]; 150 mg, 150 mg BID, Day 1, plasma, read-out: t1/2, mean (SD) (converted)",4.52 h
same,AUC,"[2]; 150 mg, 150 mg BID, Day 14, plasma, read-out: AUC12, geometric mean (Geo CV%)",5570 ng·h/mL
same,AUC,"[2]; 150 mg, 150 mg BID, Day 14, plasma, read-out: AUC12, mean (SD)",5660 ng·h/mL
same,Cmax,"[2]; 150 mg, 150 mg BID, Day 14, plasma, read-out: Cmax, geometric mean (Geo CV%)",846 ng/mL
same,Cmax,"[2]; 150 mg, 150 mg BID, Day 14, plasma, read-out: Cmax, mean (SD)",861 ng/mL
same,Tmax,"[2]; 150 mg, 150 mg BID, Day 14, plasma",2.5 h
same,AUC,"[2]; 300 mg, 300 mg BID, Day 1, plasma, read-out: AUC12, geometric mean (Geo CV%)",5540 ng·h/mL
same,AUC,"[2]; 300 mg, 300 mg BID, Day 1, plasma, read-out: AUC12, mean (SD)",5590 ng·h/mL
same,Cmax,"[2]; 300 mg, 300 mg BID, Day 1, plasma, read-out: Cmax, geometric mean (Geo CV%)",907 ng/mL
same,Cmax,"[2]; 300 mg, 300 mg BID, Day 1, plasma, read-out: Cmax, mean (SD)",925 ng/mL
same,Tmax,"[2]; 300 mg, 300 mg BID, Day 1, plasma",2.5 h
same,half-life,"[2]; 300 mg, 300 mg BID, Day 1, plasma, read-out: t1/2, geometric mean (Geo CV%) (converted)",4.15 h
same,half-life,"[2]; 300 mg, 300 mg BID, Day 1, plasma, read-out: t1/2, mean (SD) (converted)",4.19 h
